Experimental data: patent US11129801B2 (SigmaThera SAS, priority 2016, dated 2021)

Tested on: rat medium spiny neurons (DARPP32 positive neurons)
Assay: Survival of primary medium spiny neurons injured by glutamate
Assay type: cell-based
Conditions: glutamate 40 μM, 20 min
Experimental: Rat MSN of striatum were cultured as described (Ivkovic S, et al, (1999) The Journal of neuroscience: the official journal of the Society for Neuroscience 19(13): 5409-5419).
Briefly pregnant female rats of 15 days gestation were killed by cervical dislocation (Rats Wistar; Janvier) and the foetuses removed from the uterus. The embryonic midbrains were removed and placed in ice-cold medium of Leibovitz 15 (L15; PanBiotech, Ref P04-27055, Batch: 8810315) containing 2% of Penicillin-Streptomycin (PS; PanBiotech, ref: P06-07100, Batch: 7511015) and 1% of bovine serum albumin (BSA; PanBiotech, Ref: P06-1391100, Batch: H140904). Only the ventral portions of the mesencephalic flexure were used for the cell preparations as this region of the developing brain is rich in dopaminergic neurons. The midbrains were dissociated by trypsinisation for 20 minutes (min) at 37° C. (Trypsin EDTA 1×; PanBiotech, Ref: P10-023100, batch: 1670415). The reaction was stopped by the addition of Dulbecco's modified Eagle's medium (DMEM; PanBiotech, Ref: P04-03600, Batch: 9021115) containing DNase I grade II (0.1 mg/ml; PanBiotech, Ref: P60-37780100, Batch: H140508) and 10% of fetal calf serum (FCS; Invitrogen, Ref: 10270-098, Batch: 41G8542K). Cells were then mechanically dissociated by 3 passages through a 10 ml pipet. Cells were then centrifuged at 180×g for 10 min at 4° C. on a layer of BSA (3.5%) in L15 medium. The supernatant was discarded and the cell pellets were re-suspended in a defined culture medium consisting of Neurobasal (Invitrogen, Ref: 21103, Batch: 1754639) supplemented with B27 (2%; Invitrogen, ref: 17504, batch: 1799273), L-glutamine (2 mM; PanBiotech, Ref: P04-80100, Batch: 6620314) and 2% of PS. Viable cells were counted in a Neubauer cytometer using the trypan blue exclusion test. The cells were seeded at a density of 70000 cells/well in 96 well-plates (pre-coated with poly-D-lysine; Greiner, Ref: E150033VJ) and were cultured at 37° C. in a humidified air (95%)/CO2 (5%) atmosphere. Half of the medium was changed every 2 days with fresh medium. […]

In the case of `CCC(C/C=C/c1ccccc1)(c1ccccc1)N(C)CC1CC1` (single isomer, unassigned; (+)) [igmesine, (+)-(E)-N-(cyclopropylmethyl)-N-methyl-3,6-diphenylhex-5-en-3-amine], the DARPP32 positive neurons (0.3 μM) is reported as 89.28 % of the control and the DARPP32 positive neurons (1 μM) is reported as 81.60 % of the control.

B1: BDNF: Brain-derived neurotrophic factor, used as a reference compound (protein, UniProt P23560 19-247, looked up)
Neurotrophic factor BDNF …: APMKEANIRGQGGLAYPGVRTHGTLESVNGPKAGSRGLTSLADTFEHVIEELLDEDQKVRPNEENNKDADLYTSRVMLSSQVPLEPPLLFLLEEYKNYLDAANMSMRVRRHSDPARRGELSVCDSISEWVTAADKKTAVDMSGGTVTVLEKVPVSKGQLKQYFYETKCNPMGYTKEGCRGIDKRHWNSQCRTTQSYVRALTMDSKKRIGWRFIRIDTSCVCTLTIKRGR
With B1 the DARPP32 positive neurons (10 ng/mL) was 90.14 % of the control.
